Data set [1] relates to K-562 (human chronic myeloid leukaemia). The data set is described as follows: MTT cytotoxicity assay, K-562. It is filed as cell-based. To be noted: for IC50: Homo sapiens, K562, MTT, 72 h exposure, three independent experiments, read-out: Cytotoxic activity IC50 (95% CI) K-562; for Selectivity index K-562: ratio of cytotoxicity L929 / K-562. The method in brief:
(§1)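 Cells grown in RPMI 1640 or DMEM with 10% FBS at 37 °C, 5% CO2, treated 72 h with DMSO-dissolved compounds in triplicate. Doxorubicin as positive control.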
On the technique in general: Formazan colour is commonly taken as a measure of viable cells.

The test system of data set [2] is HL60 (human pro-myelocytic leukaemia). The data set is described as follows: MTT cytotoxicity assay, HL60. Type of data set: cell-based. Conditions: for IC50: MTT, 72 h exposure, three independent experiments, read-out: Cytotoxic activity IC50 (95% CI) HL60; for Selectivity index HL60: ratio of cytotoxicity L929 / HL60. The method, boiled down: as §1
The subject of data set [3] is RAJI (human Burkitt’s lymphoma). Kind of data set: MTT cytotoxicity assay, RAJI. Type of data set: cell-based. Conditions: for IC50: Homo sapiens, Raji, 72 h, MTT, 72 h exposure, three independent experiments, read-out: Cytotoxic activity IC50 (95% CI) RAJI; for Selectivity index RAJI: ratio of cytotoxicity L929 / RAJI. The method in brief:
as §1

The subject of data set [4] is A549 (human lung carcinoma). The data set is described as follows: MTT cytotoxicity assay, A549. Type of data set: cell-based. To be noted: for IC50: Homo sapiens, A549, MTT, 72 h exposure, three independent experiments, read-out: Cytotoxic activity IC50 (95% CI) A549; for Selectivity index A549: ratio of cytotoxicity L929 / A549. The method, boiled down: as §1
For data set [5], the system named is L929 cells (non-tumoral mouse fibroblast). The data set is described as follows: MTT cytotoxicity assay, L929 control line. It is filed as cell-based. Conditions: 72 h exposure, read-out: Cytotoxic activity IC50 (95% CI) L929. The method, boiled down:
as §1

A short description of data set [6]: MTT cytotoxicity assay, L929 control line. Conditions: mouse, L929 fibroblast cells (non-tumoral control line), 72 h exposure, read-out: Cytotoxic activity IC50 (95% CI) L929. It is filed as cell-based, mouse. The method in brief:
as §1

For data set [7], the system named is SNB-19 (human astrocytoma). The data set is described as follows: MTT cytotoxicity assay, SNB-19. Type of data set: cell-based. Conditions: for IC50: Homo sapiens, SNB-19, MTT, 72 h exposure, three independent experiments, read-out: Cytotoxic activity IC50 (95% CI) SNB-19; for Selectivity index SNB-19: ratio of cytotoxicity L929 / SNB-19. The method in brief: as §1

Another data set concerns B16 (murine melanoma). Kind of data set: MTT cytotoxicity assay, B16. It is filed as cell-based. To be noted: for IC50: Mus musculus, MTT, 72 h exposure, three independent experiments, read-out: Cytotoxic activity IC50 (95% CI) B16; for Selectivity index B16: ratio of cytotoxicity L929 / B16. The method, boiled down:
as §1

Data set [8] concerns PC3 (human prostate adenocarcinoma). The data set is described as follows: MTT cytotoxicity assay, PC3. It is filed as cell-based. Conditions: for IC50: Homo sapiens, MTT, 72 h exposure, three independent experiments, read-out: Cytotoxic activity IC50 (95% CI) PC3; for Selectivity index PC3: ratio of cytotoxicity L929 / PC3. The method in brief: as §1
The subject of data set [9] is KG1 (human acute myeloid leukaemia). The data set is described as follows: MTT cytotoxicity assay, KG1. Type of data set: cell-based. To be noted: for IC50: Homo sapiens, MTT, 72 h exposure, three independent experiments, read-out: Cytotoxic activity IC50 (95% CI) KG1; for Selectivity index KG1: ratio of cytotoxicity L929 / KG1. The method in brief: as §1
Data set [10] deals with HCT-116 (human colorectal carcinoma). The data set is described as follows: MTT cytotoxicity assay, HCT-116. Type of data set: cell-based. To be noted: for IC50: Homo sapiens, HCT-116, 72 h, MTT, 72 h exposure, three independent experiments, read-out: Cytotoxic activity IC50 (95% CI) HCT-116; for Selectivity index HCT-116: ratio of cytotoxicity L929 / HCT-116. The method, boiled down:
as §1

Data on seven compounds can be found in PMC10005332, “It Takes Two to Tango, Part II: Synthesis of A-Ring Functionalised Quinones Containing Two Redox-Active Centres with Antitumour Activities” (Molecules, 2023).

Like-named read-outs stand apart in the source and are kept apart here.

Take `C#CCNC1=CC(=O)c2c(O)cccc2C1=O` [Compound 18b, 5-hydroxy-2-(prop-2-yn-1-ylamino)naphthalene-1,4-dione]: the IC50 is 25 µM in data set [1]; > 100 µM in [2] (Homo sapiens, HL-60, 72 h); 23.2 µM in data set [3]; 15 µM in data set [4]; 23.9 µM in data set [5]; 15 µM in [7]. Moreover, the IC50 in the data set with B16 (murine melanoma) was 8.65 µM; in data set [8] it was > 100 µM; in data set [9], > 100 µM. Also, the “Selectivity index K-562” value in data set [1] worked out at 1.0. Besides, in [2], the “Selectivity index HL60” value amounted to 0.2. Also, the “Selectivity index RAJI” value in data set [3] is 1.0. Moreover, the “Selectivity index A549” value in data set [4] amounted to 1.6. Moreover, the IC50 at 72 h in data set [6] came out at 24 µM. In addition, in data set [7], the “Selectivity index SNB-19” value is 1.6. Moreover, the “Selectivity index B16” value in the data set on B16 (murine melanoma) came to 2.8. Moreover, in data set [8], the “Selectivity index PC3” value was 0.2. The “Selectivity index KG1” value in [9] was found to be 0.2.
In the case of `CC1(C)OC2=C(CC1Cn1cc(CNC3=CC(=O)c4cccc(OCc5ccccc5)c4C3=O)nn1)C(=O)C(=O)c1ccccc12` (centres unmarked) [Compound 21d, 3-((4-(((8-benzyloxy-1,4-dioxo-1,4-dihydronaphthalen-2-yl)amino)methyl)-1H-1,2,3-triazol-1-yl)methyl)-2,2-dimethyl-3,4-dihydro-2H-benzo[h]chromene-5,6-dione], in [1], the IC50 turned out to be 10.1 µM and the “Selectivity index K-562” value was 0.5. Further, in [10], the IC50 was 4.16 µM and the “Selectivity index HCT-116” value turned out to be 1.3. Besides, the IC50 in [2] (Homo sapiens, HL-60, 72 h) worked out at 0.89 µM. The “Selectivity index HL60” value in [2] stood at 5.9. Further, in data set [3], the IC50 stood at 28.7 µM and the “Selectivity index RAJI” value is 0.2. For the same compound, in [4], the IC50 was 2.61 µM and the “Selectivity index A549” value is 2.0. Moreover, in [6], the IC50 at 72 h came out at 5.27 µM. In data set [7], the IC50 was 3.83 µM and the “Selectivity index SNB-19” value is reported as 1.4. Also, in the data set on B16 (murine melanoma), the IC50 was 5.12 µM and the “Selectivity index B16” value was found to be 1.0. Also, in data set [8], the IC50 amounted to 9.76 µM and the “Selectivity index PC3” value is recorded as 0.5. Besides, in data set [9], the IC50 was 11.5 µM and the “Selectivity index KG1” value was 0.5.
On to `CC1(C)OC2=C(CC1Cn1cc(CNC3=CC(=O)c4c(O)cccc4C3=O)nn1)C(=O)C(=O)c1ccccc12` (centres unmarked) [Compound 21b, 3-((4-(((5-hydroxy-1,4-dioxo-1,4-dihydronaphthalen-2-yl)amino)methyl)-1H-1,2,3-triazol-1-yl)methyl)-2,2-dimethyl-3,4-dihydro-2H-benzo[h]chromene-5,6-dione], for which, in data set [1], the IC50 came out at 4.13 µM and the “Selectivity index K-562” value was 0.5. Besides, in [10], the IC50 came out at 1.64 µM and the “Selectivity index HCT-116” value was 1.3. In [2] (Homo sapiens, HL-60, 72 h), the IC50 is 2.23 µM. In [2], the “Selectivity index HL60” value is recorded as 0.9. In data set [3], the IC50 came to 2.01 µM and the “Selectivity index RAJI” value was 1.0. Further, in data set [4], the IC50 came to 1.68 µM and the “Selectivity index A549” value was found to be 1.2. Besides, the IC50 at 72 h in data set [6] worked out at 2.07 µM. For the same compound, in [7], the IC50 was 4.24 µM and the “Selectivity index SNB-19” value is listed as 0.5. In addition, in the data set with B16 (murine melanoma), the IC50 was 3.94 µM and the “Selectivity index B16” value is 0.5. Besides, in data set [8], the IC50 worked out at 3.85 µM and the “Selectivity index PC3” value came to 0.5. In data set [9], the IC50 was 3.01 µM and the “Selectivity index KG1” value is 0.7.
For `CC1(C)OC2=C(C(=O)C(=O)c3ccccc32)C1n1cc(CNC2=CC(=O)c3c(O)cccc3C2=O)nn1` (centres unmarked) [Compound 19b, 3-(4-(((5-hydroxy-1,4-dioxo-1,4-dihydronaphthalen-2-yl)amino)methyl)-1H-1,2,3-triazol-1-yl)-2,2-dimethyl-2,3-dihydronaphtho[1,2-b]furan-4,5-dione], in data set [1], the IC50 was determined as 3.16 µM and the “Selectivity index K-562” value was 1.9. Moreover, in [10], the IC50 came out at 1.7 µM and the “Selectivity index HCT-116” value came out at 3.5. Also, in data set [2] (Homo sapiens, HL-60, 72 h), the IC50 came to 0.99 µM. In addition, in data set [2], the “Selectivity index HL60” value is 6.0. In addition, in data set [3], the IC50 stood at 2.55 µM and the “Selectivity index RAJI” value was 2.3. For the same compound, in data set [4], the IC50 was 3.16 µM and the “Selectivity index A549” value was 1.9. In data set [6], the IC50 at 72 h worked out at 5.97 µM. In data set [7], the IC50 was 3.35 µM and the “Selectivity index SNB-19” value amounted to 1.8. Moreover, in the data set with B16 (murine melanoma), the IC50 was determined as 3.55 µM and the “Selectivity index B16” value is reported as 1.7. For the same compound, in [8], the IC50 turned out to be 3.16 µM and the “Selectivity index PC3” value was found to be 1.9. Further, in [9], the IC50 was determined as 5.24 µM and the “Selectivity index KG1” value amounted to 1.1.
Consider `C#CCNC1=CC(=O)c2c(I)cccc2C1=O` [Compound 18a, 5-iodo-2-(prop-2-yn-1-ylamino)naphthalene-1,4-dione], for which the IC50 in data set [1] is > 100 µM; in [10] it was > 100 µM; in data set [2] (Homo sapiens, HL-60, 72 h), 38.3 µM; in data set [3], > 100 µM; in [4] it was > 100 µM; in [7], > 100 µM. Further, the IC50 with B16 (murine melanoma) is 48.5 µM; in data set [8], > 100 µM; in data set [9], > 100 µM. Also, in data set [2], the “Selectivity index HL60” value stood at 2.6. Further, the IC50 at 72 h in data set [6] was > 100 µM. The “Selectivity index B16” value with B16 (murine melanoma) is 2.1.
Turning to `C#CCNC1=CC(=O)c2cccc(OCc3ccccc3)c2C1=O` [Compound 18d, 8-benzyloxy-2-(prop-2-yn-1-ylamino)naphthalene-1,4-dione], the IC50 in data set [1] is > 100 µM; in [10] it was > 100 µM; in data set [2] (Homo sapiens, HL-60, 72 h), 32 µM; in data set [3] it was > 100 µM; in data set [4] it was > 100 µM; in [7] it was > 100 µM. The figures for the IC50 (with B16 (murine melanoma); in data set [8]; in data set [9]) were 35.5 µM, > 100 µM and > 100 µM, respectively. In addition, the “Selectivity index HL60” value in data set [2] came out at 3.1. In addition, the IC50 at 72 h in data set [6] is > 100 µM. For the same compound, the “Selectivity index B16” value in the data set with B16 (murine melanoma) stood at 2.8.
Consider `CC1(C)OC2=C(C(=O)C(=O)c3ccccc32)C1n1cc(CNC2=CC(=O)c3cccc(OCc4ccccc4)c3C2=O)nn1` (centres unmarked) [Compound 19d, 3-(4-(((8-benzyloxy-1,4-dioxo-1,4-dihydronaphthalen-2-yl)amino)methyl)-1H-1,2,3-triazol-1-yl)-2,2-dimethyl-2,3-dihydronaphtho[1,2-b]furan-4,5-dione], for which, in [1], the IC50 turned out to be 1.04 µM and the “Selectivity index K-562” value was 2.2. Besides, in data set [10], the IC50 stood at 0.53 µM and the “Selectivity index HCT-116” value came out at 4.3. Also, in [2] (Homo sapiens, HL-60, 72 h), the IC50 was 0.3 µM. Further, in data set [2], the IC50 was 0.34 µM and the “Selectivity index HL60” value was 6.7. In [3], the IC50 was determined as 1.26 µM and the “Selectivity index RAJI” value is 1.8. In [4], the IC50 worked out at 1.11 µM and the “Selectivity index A549” value was found to be 2.1. Also, the concentration for half-maximal inhibition (IC50) at 72 h in data set [6] came to 2.29 µM. Moreover, in [7], the IC50 was 0.76 µM and the “Selectivity index SNB-19” value is recorded as 3.0. In the data set with B16 (murine melanoma), the IC50 was found to be 0.93 µM and the “Selectivity index B16” value is 2.5. Further, in data set [8], the concentration for half-maximal inhibition (IC50) was 1.23 µM and the “Selectivity index PC3” value amounted to 1.9. Besides, in [9], the IC50 amounted to 2.94 µM and the “Selectivity index KG1” value is reported as 0.8.

By IC50 is commonly meant the point on the concentration scale where inhibition reaches its midpoint.
